The text below walks through data of PubChem BioAssay (NCI).

Test systems include ACHN renal; CCRF-CEM leukemia; HCC-2998 colon; HS 578T breast; SK-MEL-2 melanoma; SNB-75 CNS; LOX IMVI melanoma; OVCAR-3 ovarian; RPMI-8226 leukemia; K-562 leukemia.
Common to all, as to test: NCI tumour cell line growth inhibition, 48 h

Several values for one entry are separate records, joined by “and”; a condition that tells them apart may be missing. Equal values may be shown once.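 All cell lines were grown in 96-well plates and treated with compound for 48 hours. GI50 marks 50% less growth. TGI: concentration producing complete growth inhibition.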

`COc1ccc(-c2ccc(/C=N/n3c(COc4ccccc4Cl)nn(CN4CCN(C)CC4)c3=S)o2)c([N+](=O)[O-])c1`: the GI50 in the test with ACHN renal is 23.1 µM; with CCRF-CEM leukemia, 21.7 µM; with HCC-2998 colon, 14.5 µM; in the test on HS 578T breast, 38.7 µM; in the test with SK-MEL-2 melanoma, 31.6 µM; with SNB-75 CNS it was 20.3 µM. The TGI with ACHN renal was 50.1 µM; in the test on CCRF-CEM leukemia, over 100 µM; in the test with HCC-2998 colon, 27.7 µM; with HS 578T breast, 81.4 µM; with SK-MEL-2 melanoma, 83.3 µM; with SNB-75 CNS, 77.3 µM.

Turning to `CCN(CC)c1cc(/C=C/c2ccc(OC)c(OC)c2)nc2cc(F)c(F)cc12`, the GI50 is 2.56 µM in the test on ACHN renal; 3.18 µM with CCRF-CEM leukemia; 70.6 µM with HCC-2998 colon; 3.09 µM in the test on HS 578T breast; 7.24 µM in the test on LOX IMVI melanoma; 5.54 µM in the test on OVCAR-3 ovarian. In addition, the GI50 in the test on RPMI-8226 leukemia is 22.1 µM; in the test with SK-MEL-2 melanoma, 1.83 µM; with SNB-75 CNS, 1.39 µM. Also, the TGI was 9.76 µM in the test on ACHN renal; 11 µM in the test on CCRF-CEM leukemia; over 100 µM in the test with HCC-2998 colon; 12.3 µM in the test on HS 578T breast; 37.7 µM with LOX IMVI melanoma; 33.3 µM in the test on OVCAR-3 ovarian. Also, the TGI in the test on RPMI-8226 leukemia is over 100 µM; with SK-MEL-2 melanoma, 3.45 µM; in the test with SNB-75 CNS it was 2.89 µM.

For the compound `O=C1C(Br)=CC2(C=C1Br)CCN=c1c2c(O)c2nc3ccccc3c3ccnc1c23`, the GI50 in the test on ACHN renal was 0.753 µM; with CCRF-CEM leukemia it was 0.132 µM; in the test on HCC-2998 colon, 9.78 µM; with HS 578T breast, 4 µM; with K-562 leukemia, 1.8 µM; with LOX IMVI melanoma, 1.24 µM. Further, the GI50 with OVCAR-3 ovarian is 1.51 µM; with RPMI-8226 leukemia it was 0.591 µM. The TGI with ACHN renal was determined as 1.7 µM; in the test with CCRF-CEM leukemia it was 0.612 µM; in the test on HCC-2998 colon, 22.3 µM; in the test on HS 578T breast, 17.1 µM; with K-562 leukemia, 7.9 µM; with LOX IMVI melanoma, 4.35 µM. For the same compound, the TGI in the test on OVCAR-3 ovarian was determined as 8.14 µM; with RPMI-8226 leukemia, 1.57 µM.

Consider `Cc1ccc(C2NC(=S)NC3=C2CCOc2c3ccc3ccccc23)cc1` (stereo unspecified), for which the GI50 in the test with ACHN renal is 44 µM; in the test on CCRF-CEM leukemia, over 100 µM; with HCC-2998 colon it was 10.8 µM; with HS 578T breast it was over 100 µM; in the test with K-562 leukemia it was 4.36 µM; with SK-MEL-2 melanoma, over 100 µM. Besides, in the test with SNB-75 CNS, the GI50 is over 100 µM. Moreover, the TGI in the test on ACHN renal, in the test on CCRF-CEM leukemia, with HCC-2998 colon, in the test with HS 578T breast, in the test with K-562 leukemia and in the test with SK-MEL-2 melanoma was over 100 µM in each case. Moreover, the TGI with SNB-75 CNS was over 100 µM.

With `CN(C)c1ccc(C(=C2C=CC(=[N+](C)C)C=C2)c2ccc(N(C)C)cc2)cc1` (tested in a mixture with another compound), the GI50 with ACHN renal is 0.233 µM; with CCRF-CEM leukemia, 0.231 µM; in the test on HS 578T breast it was 0.0479 µM; in the test with K-562 leukemia it was 0.047 µM; in the test on OVCAR-3 ovarian, 0.133 µM; with RPMI-8226 leukemia it was 0.04 µM. The GI50 with SNB-75 CNS is 0.0724 µM. Further, the TGI in the test on ACHN renal was determined as 1.48 µM; with CCRF-CEM leukemia it was 19.5 µM; in the test on HCC-2998 colon it was 1.53 µM; in the test on HS 578T breast it was 1.9 µM; with K-562 leukemia, 2.86 µM; in the test on OVCAR-3 ovarian, 0.949 µM. In addition, the TGI in the test on SK-MEL-2 melanoma was determined as 0.545 µM; in the test with SNB-75 CNS, 0.54 µM.

On to `COc1cc2c(cc1OCCOS(C)(=O)=O)N=C[C@@H]1CCCN1C2=O`, for which the GI50 in the test with ACHN renal was 16 µM; in the test with CCRF-CEM leukemia it was 14.5 µM; with LOX IMVI melanoma, 15.7 µM; with OVCAR-3 ovarian, 16.3 µM; with RPMI-8226 leukemia it was 12.2 µM. Further, the TGI is 29.5 µM in the test on ACHN renal; 54.9 µM in the test with CCRF-CEM leukemia; over 100 µM in the test on HCC-2998 colon; 81 µM in the test on HS 578T breast; 29.5 µM in the test with LOX IMVI melanoma; 31.3 µM in the test on OVCAR-3 ovarian. For the same compound, the TGI is 48.8 µM in the test with RPMI-8226 leukemia, over 100 µM in the test on SK-MEL-2 melanoma and over 100 µM in the test with SNB-75 CNS.

Take `CC[C@H]1CN2CCc3cc(OC)c(OC)cc3[C@@H]2C[C@@H]1C[C@H]1NCCc2cc(O)c(OC)cc21`: the GI50 with ACHN renal was 0.0221 µM and < 0.0115 µM; in the test with HS 578T breast, 0.0138 µM; in the test on LOX IMVI melanoma, 0.00437 µM; in the test on SNB-75 CNS, 0.0155 µM and 0.025 µM. The TGI with ACHN renal was 0.0758 µM; in the test with HCC-2998 colon, 0.0484 µM and 0.0472 µM; in the test with HS 578T breast, 0.0539 µM; in the test on K-562 leukemia it was 2.65 µM; in the test with LOX IMVI melanoma, 0.0134 µM; in the test on OVCAR-3 ovarian it was 0.0774 µM and 0.287 µM. The TGI is 0.0779 µM and 0.0542 µM with RPMI-8226 leukemia; 0.0493 µM and 0.0294 µM and 0.0532 µM in the test on SK-MEL-2 melanoma; 0.0735 µM and 0.147 µM and 0.0944 µM in the test with SNB-75 CNS.

Take `CN1CCCNc2c(c(=O)c2=O)NCCCN(C)CCCNc2c(c(=O)c2=O)NCCCN(C)CCCNc2c(c(=O)c2=O)NCCCN(C)CCCNc2c(c(=O)c2=O)NCCCN(C)CCCNc2c(c(=O)c2=O)NCCCN(C)CCCNc2c(c(=O)c2=O)NCCCN(C)CCCNc2c(c(=O)c2=O)NCCC1`: the GI50 in the test with ACHN renal was 1.66 µM; in the test on CCRF-CEM leukemia it was 2.24 µM; with HCC-2998 colon, 7.18 µM; with HS 578T breast, 9.15 µM; in the test with LOX IMVI melanoma it was 10.5 µM; in the test on OVCAR-3 ovarian, 4.39 µM. The GI50 was 3.51 µM in the test on RPMI-8226 leukemia, 3.12 µM with SK-MEL-2 melanoma and 9.48 µM in the test with SNB-75 CNS. Besides, the TGI in the test with ACHN renal was 6.87 µM; with CCRF-CEM leukemia it was 49.3 µM; with HCC-2998 colon, 22.1 µM; with HS 578T breast it was 31.2 µM; in the test on LOX IMVI melanoma, over 50 µM; in the test with OVCAR-3 ovarian, 15.1 µM. Further, the TGI in the test with RPMI-8226 leukemia was found to be 31.2 µM; in the test with SK-MEL-2 melanoma it was 31.6 µM; in the test on SNB-75 CNS it was 19.3 µM.

With `CCN(CC)CCCNc1cccc2c(SCc3ccccc3)ccnc12`, the GI50 in the test with ACHN renal was 1.81 µM; in the test on CCRF-CEM leukemia, 0.179 µM; with HCC-2998 colon it was 1.73 µM; in the test on HS 578T breast, 2.2 µM; in the test on OVCAR-3 ovarian it was 1.75 µM; in the test on RPMI-8226 leukemia, 1.24 µM. Besides, the GI50 in the test on SK-MEL-2 melanoma was 1.89 µM; in the test on SNB-75 CNS, 1.6 µM. Further, the TGI with ACHN renal is 3.27 µM; in the test with CCRF-CEM leukemia it was 3 µM; with HCC-2998 colon, 3.2 µM; with HS 578T breast, 6.31 µM; in the test with OVCAR-3 ovarian it was 3.43 µM; in the test on RPMI-8226 leukemia, 3.37 µM. Moreover, the values for the TGI in the test on SK-MEL-2 melanoma and with SNB-75 CNS were 3.56 µM and 3.22 µM, respectively.
